Experimental data reported in patent US11090304B2 (Amgen Inc., priority 2018, dated 2021).

Legend:
[1] = biological target: GDP-bound KRAS protein (aa 1-169), containing both G12C and C118A amino acid substitutions (Homo sapiens, UniProt P01116, C118A/G12C); assay: Coupled nucleotide exchange assay (SOS-mediated, AlphaScreen); type: biochemical; conditions: 5 min compound pre-incubation
[2] = system: Phosphorylation of ERK1/2 in MIA PaCa-2 cells; assay: Phospho-ERK1/2 MSD assay in MIA PaCa-2 cells; type: cell-based; conditions: Homo sapiens, MIA PaCa-2, 2 h, read-out: p-ERK IC50 (2 h; MIA PaCa-2), 2 h compound treatment
Experimental: For compounds in Table 89, the following assay conditions were employed:
Phospho-ERK1/2 MSD Assay:
Sixteen hours prior to compound treatment, MIA PaCa-2 or A549 cells were seeded in 96-well cell culture plates at a density of 25,000 cells/well and incubated at 37° C., 5% CO2. A compound dose-response titration was diluted in growth media, added to appropriate wells of a cell culture plate, and then incubated at 37° C., 5% CO2 for 2 or 4 hours (see Table 15). Following compound treatment, cells were stimulated with 10 ng/mL EGF (Roche 11376454001) for 10 min, washed with ice-cold Dulbecco's phosphate-buffered saline, no Ca^2+ or Mg^2+ (ThermoFisher Scientific 14190144), and then lysed in RIPA buffer (50 mM Tris-HCl pH 7.5, 1% Igepal, 0.5% sodium deoxycholate, 150 mM NaCl, and 0.5% sodium dodecyl sulfate) containing protease inhibitors (Roche 4693132001) and phosphatase inhibitors (Roche 4906837001). Phosphorylation of ERK1/2 in compound-treated lysates was assayed using Phospho-ERK1/2 Whole Cell Lysate kits (Meso Scale Discovery K151DWD) according to the manufacturer's protocol. Assay plates were read on a Meso Scale Discovery Sector Imager 6000, and data were analyzed using a 4-parameter logistic model to calculate IC50 values.

Chain of GDP-bound KRAS protein (aa 1-169), containing both G12C and C118A amino acid substitutions (P01116 1-169 isoform P01116-2 G12C/C118A): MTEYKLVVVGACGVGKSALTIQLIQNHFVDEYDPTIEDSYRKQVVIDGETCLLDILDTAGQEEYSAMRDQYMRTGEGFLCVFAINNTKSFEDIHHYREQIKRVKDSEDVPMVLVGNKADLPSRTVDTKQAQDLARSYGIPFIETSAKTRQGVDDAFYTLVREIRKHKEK

SMILES	Coupled exchange IC50 (5 min) [1]	IC50 [2] [µM]
C=CC(=O)N1CCN(c2nc(=O)n(-c3c(C)ccnc3C(C)C)c3nc(-c4nc(N)ccc4Cl)c(F)cc23)C(C)C1 (atropisomer, axis not shown; (M)) [Example 65-1, (M)-7-(6-Amino-3-chloro-2-pyridinyl)-6-fluoro-1-(4-methyl-2-(2-propanyl)-3-pyridinyl)-4-((2S)-2-methyl-4-(2-propenoyl)-1-piperazinyl)pyrido[2,3-d]pyrimidin-2(1H)-one]	0.606 | nda μM	1.52
C=CC(=O)N1CCN(c2nc(=O)n(-c3c(C)ccnc3C(C)C)c3nc(-c4cc(F)c(F)cc4O)c(F)cc23)[C@@H](C)C1 (atropisomer, axis not shown; (M)) [Example 72-2, (M)-7-(4,5-difluoro-2-hydroxyphenyl)-6-fluoro-1-(4-methyl-2-(2-propanyl)-3-pyridinyl)-4-((2S)-2-methyl-4-(2-propenoyl)-1-piperazinyl)pyrido[2,3-d]pyrimidin-2(1H)-one]	0.534 | nda μM	0.595
C=CC(=O)N1CCN(c2nc(=O)n(-c3c(C)ccnc3C(C)C)c3nc(-c4cc(OC)c(F)cc4F)c(F)cc23)[C@@H](C)C1 (atropisomer, axis not shown; (M)) [Example 72-6, (M)-7-(2,4-difluoro-5-methoxyphenyl)-6-fluoro-1-(4-methyl)-2-(2-propanyl)-3-pyridinyl)-4-((2S)-(2-methyl-4-(2-propenoyl)-1-piperazinyl)pyrido[2,3-d]pyrimidin-2(1H)-one]	0.315 | nda μM	0.564
C=CC(=O)N1CCN(c2nc(=O)n(-c3c(C)ccnc3C(C)C)c3nc(-c4cc(O)c(F)cc4F)c(F)cc23)[C@@H](C)C1 (atropisomer, axis not shown; (M)) [Example 72-7, (M)-7-(2,4-difluoro-5-hydroxyphenyl)-6-fluoro-1-(4-methyl-2-(2-propanyl)-3-pyridinyl)-4-((2S)-2-methyl-4-(2-propenoyl)-1-piperazinyl)pyrido[2,3-d]pyrimidin-2(1H)-one]	0.262 | nda μM	2.24

The remaining lines, values ahead:

Coupled exchange IC50 (5 min) [1]	IC50 [2] [µM]	SMILES
0.096 | nda μM	0.1	C=CC(=O)N1CCN(c2nc(=O)n(-c3c(C)ccnc3C(C)C)c3nc(-c4c(O)cc(F)cc4F)c(F)cc23)[C@@H](C)C1 (atropisomer, axis not shown; (M)) [Example 65-3, (M)-7-(2,4-difluoro-6-hydroxyphenyl)-6-fluoro-1-(4-methyl-2-(2-propanyl)-3-pyridinyl)-4-((2S)-2-methyl-4-(2-propenoyl)-1-piperazinyl)pyrido[2,3-d]pyrimidin-2(1H)-one]
0.08 | nda μM	0.115	C=CC(=O)N1CCN(c2nc(=O)n(-c3c(C)ccnc3C(C)C)c3nc(-c4c(C)cccc4O)c(F)cc23)[C@@H](C)C1 (atropisomer, axis not shown; (M)) [Example 72-4, (M)-6-fluoro-7-(2-hydroxy-6-methylphenyl)-1-(4-methyl-2-(2-propanyl)-3-pyridinyl)-4-((2S)-2-methyl-4-(2-propenoyl)-1-piperazinyl)pyrido[2,3-d]pyrimidin-2(1H)-one]
0.042 | nda μM	0.091	C=CC(=O)N1CCN(c2nc(=O)n(-c3c(C)ccnc3C(C)C)c3nc(-c4c(O)ccc(F)c4F)c(F)cc23)[C@@H](C)C1 (atropisomer, axis not shown; (M)) [Example 72-8, (M)-7-(2,3-difluoro-6-hydroxyphenyl)-6-fluoro-1-(4-methyl-2-(2-propanyl)-3-pyridinyl)-4-((2S)-2-methyl-4-(2-propenoyl)-1-piperazinyl)pyrido[2,3-d]pyrimidin-2(1H)-one]
